# From patent US20140309974A1 (priority 2013, published 2014)
# Legend:
# [1] = system: HSV-1 KOS strain expressing green fluorescent protein (GFP); assay: HSV-1 (KOS, GFP reporter) infection of NIH 3T3 cells, flow cytometry of GFP-positive cells; type: cell-based, herpes simplex virus-1 on NIH 3T3 cells; settings: for antiviral effect on HSV-1 infection (in words) / percentage of infected (GFP-positive) cells after treatment: NIH 3T3 cells; for antiviral effect on HSV-1 infection (in words): HSV-1 KOS GFP, flow cytometry / fluorescence images; for percentage of infected (GFP-positive) cells after treatment: MOI about 0.1, about 16 hours, no drug gives about 60%
# Description: Cell culture: NIH 3T3 cells were grown on 15 cm plates in DMEM supplemented with about 5% Fetalplex and about 1% penicillin/streptomycin and kept in an about 37° C. incubator with about 5% CO2. To propagate cells, the experiments involved plating 107 on each […] plate and splitting the cells every 24 hours. For each experimental iteration, the experiments plated 2×10^5 cells/well in a 24-well plate. To minimize variance generated from different batches of cells, the trial group and crossover group were tested and compared using the same batch of cells for each iteration.
# Viral infection: HSV-1 KOS strain expressing green fluorescent protein (GFP) in frame with the ICPO protein between amino acids 104 and 105 was used. The virus was prepared by propagation of virus on a confluent monolayer of Vero cells. Supernatants from infected cells were collected and centrifuged to separate cell debris. The cell pellet in residual medium was frozen and thawed three times at about −80° C. and about 37° C., respectively. The residual supernatant was then pooled together with the original supernatant, and viral titers were determined by a standard plaque assay on Vero cell monolayers. Multiplicity of infection (MOI) of about 0.1 was used throughout except as indicated. To control MOI, cells, virus, and drug combinations were added at the same time and incubated at about 37° C. After about 17 hours, culture medium was aspirated, and cells were detached with PBS-EDTA treatment at about 37° C. for about 5 minutes. Detached cells were transferred to flow cytometry tubes, pelleted, and re-suspended in about 1.6% PFA and kept at about 4° C. until analysis. A BD FACS Canto II was used for flow cytometry analysis.
# HSV-1 infectious disease model: HSV-1 infection on an NIH 3T3 fibroblast cell line was used as an in vitro model system to search for new therapeutic drug combinations. The antiviral drugs that are used in the therapeutic model include three antiviral cytokines (IFN-α, IFN-β, and IFN-γ), ribavirin, acyclovir, and TNF-α. Virus-infected cells were treated with single drugs or drug combinations and cultured for about 16 hours. The HSV-1 strain used to infect the NIH 3T3 cells encodes a GFP reporter in infected cells, allowing flow cytometric analysis of cells to measure the rate and extent of infection, because the fluorescence intensity of GFP correlated to the presence of virus. Determination of efficacy of drug treatments was made by comparing the number of GFP-negative non-infected cells in the absence or presence of drug treatment. This value was considered the antiviral readout of a drug treatment.
# The infectious dose of HSV-1 used (MOI: number of infectious virions per cell) is an important parameter when evaluating the outcome of potential therapies. […] An MOI of about 0.1 was used throughout the studies.
# [2] = high doses of ribavirin; cited from earlier work
Compound,"viral infection over incubation time, day 1 to day 4 (in words) ([1]; HSV-1-infected cells cultured 1 day to 4 days in presence of drug, flow cytometry)",antiviral effect on HSV-1 infection (in words) [1],percentage of infected (GFP-positive) cells after treatment [1],reported side effects [2]
Nc1nc2c(ncn2COCCO)c(=O)[nH]1 [acyclovir],remained constant as time increased,"reduced the infection rate, though a large percentage of cells were infected despite drug treatment",about 15%,
NC(=O)c1ncn([C@@H]2O[C@H](CO)[C@@H](O)[C@H]2O)n1 [ribavirin],,,about 5%,"cause anemia, to be teratogenic in some animal tests, and to inhibit DNA synthesis in a dosage dependent manner"
TNF-α,,"potentiated HSV-1 infection, resulting in more infected cells than the non-treated control",,
